Assay results: PMC8617944, “Preclinical Pharmacokinetics and Acute Toxicity in Rats of 5-{[(2E)-3-Bromo-3-carboxyprop-2-enoyl]amino}-2-hydroxybenzoic Acid: A Novel 5-Aminosalicylic Acid Derivative with Potent Anti-Inflammatory Activity” (Molecules, 2021)
Like-named read-outs stand apart in the source and are kept apart here.

Assay: Pharmacokinetic profiles after p.o., i.p. and i.v. administration
Assay type: in vivo, Wistar rats
Settings: for absorption half-life: read-out: t1/2a, absorption half-life (converted); for Cmax: read-out: Cmax, maximum plasma concentration; for k el: read-out: Ke, elimination rate constant (converted); for MRT: read-out: MRT, mean residence time; for Tmax: read-out: tmax, time to maximum plasma concentration (converted); for Ka, absorption rate constant: non-compartmental
Method: On the same day as C1 administration, the rats (three groups, n = 6) were previously cannulated for compound administration by the p.o., i.p., and i.v. routes. A 24 G catheter was placed in the right lateral tail vein for blood collection. A first group of rats received a single dose of 50 mg/kg applied p.o. with a 20 G gavage needle. A dose of 75 mg/kg of C1 was injected i.p. into the rats in the second group. A single dose of 50 mg/kg was given i.v. to the third group by means of another catheter previously placed in the left lateral tail vein. The doses used in this study were selected based on previous pharmacokinetic studies reported in rats for 5-ASA [60] or for derivatives of this compound [61]. Animals were provided with the standard diet 4 h after dosing. […] The volume of blood removed was supplemented with an equal volume of 0.9% sodium chloride solution. The blood samples were centrifuged at 8000 rpm for 15 min to harvest 100 μL of plasma.
Plasma samples were processed immediately. Briefly, 450 µL of acetonitrile was added to 100 µL of plasma and vortexed for 5 min. Subsequently, 450 µL of methanol was added, and the sample was vortexed again, followed by centrifugation to precipitate the proteins. Finally, 10 µL of the supernatant were used for evaluation of the plasma concentration of C1 by RP-HPLC with the UV detection method, previously validated for the pharmacokinetic and complementary assays herein performed.
The plasma concentration–time data were plotted. […] Pharmacokinetic parameters of C1 were calculated on Kinetica 5.0 software (Adept Scientific Ltd), including the maximum plasma concentration (Cmax), time to maximum plasma concentration (tmax), elimination half-life (t1/2e), the area under the plasma concentration-time curve from time zero to the last measurable concentration (AUC0-t), the area under the plasma concentration-time curve from time zero to infinity (AUCtot), mean residence time (MRT), clearance (CL), and apparent volume of distribution (Vd).

[1] = Wistar, rat, plasma, ip, 75 mg/kg, i.p. 75 mg/kg, n = 6
[2] = Wistar, rat, plasma, ip, 75 mg/kg, plasma, i.p. 75 mg/kg, n = 6, read-out: Average Concentration
[3] = Wistar, rat, plasma, ip, 75 mg/kg, plasma, i.p. 75 mg/kg, individual rats, read-out: Concentration (µg/mL), Rat 1-6
[4] = Wistar, rat, plasma, ip, i.p. 75 mg/kg, rats
[5] = Wistar, rat, plasma, iv, 50 mg/kg, i.v. 50 mg/kg, n = 6
[6] = Wistar, rat, plasma, iv, 50 mg/kg, plasma, i.v. 50 mg/kg, n = 6, read-out: Average Concentration
[7] = Wistar, rat, plasma, iv, 50 mg/kg, plasma, i.v. 50 mg/kg, individual rats, read-out: Concentration (µg/mL), Rat 1-6
[8] = Wistar, rat, plasma, iv, i.v. 50 mg/kg, rats
[9] = Wistar, rat, plasma, po, 50 mg/kg, i.g. (p.o.) 50 mg/kg, n = 6
[10] = Wistar, rat, plasma, po, 50 mg/kg, plasma, i.g. (p.o.) 50 mg/kg, individual rats, read-out: Concentration (µg/mL), Rat 1-6
[11] = Wistar, rat, plasma, po, 50 mg/kg, plasma, i.g. (p.o.) 50 mg/kg, n = 6, read-out: Average Concentration
[12] = Wistar, rat, plasma, po, p.o. 50 mg/kg, rats
[13] = two-compartment model, Kinetica 5.0

## O=C(/C=C(/Br)C(=O)O)Nc1ccc(O)c(C(=O)O)c1 [Compound C1, 5-{[(2E)-3-bromo-3-carboxyprop-2-enoyl]amino}-2-hydroxybenzoic acid]
[1]
  concentration at 5 min: 15900 ng/mL
  concentration at 10 min: 17600 ng/mL
  concentration at 30 min: 19900 ng/mL
  concentration at 45 min: 17700 ng/mL
  concentration at 60 min: 15200 ng/mL
  concentration at 90 min: 11200 ng/mL
  concentration at 120 min: 9000 ng/mL
  concentration at 180 min: 5200 ng/mL
  concentration at 240 min: 2900 ng/mL
Wistar, rat, plasma, ip, 75 mg/kg, i.p. 75 mg/kg, rats
  absorption half-life: 1.3 ± 0.5 h
Wistar, rat, plasma, ip, 75 mg/kg, i.p. 75 mg/kg, rats, read-out: t1/2e, elimination half-life (converted)
  half-life: 1.4 ± 0.2 h
[2]
  concentration at 20 min: 19.8 µg/mL
  concentration at 300 min: 0 µg/mL
  concentration at 360 min: 0 µg/mL
  concentration at 540 min: 0 µg/mL
  concentration at 720 min: 0 µg/mL
[3]
  concentration at 300 min: 0 µg/mL
  concentration at 360 min: 0 µg/mL
  concentration at 540 min: 0 µg/mL
  concentration at 720 min: 0 µg/mL
[4]
  Cmax: 22000 ± 1000 ng/mL
  k el: 0.000139 s⁻¹
  MRT: 3.1 ± 0.9 h
  Tmax: 0.55 h
[5]
  concentration at 5 min: 10500 ng/mL
  concentration at 10 min: 7800 ng/mL
  concentration at 30 min: 5300 ng/mL
  concentration at 45 min: 4200 ng/mL
  concentration at 60 min: 4000 ng/mL
  concentration at 90 min: 3400 ng/mL
  concentration at 120 min: 2200 ng/mL
  concentration at 180 min: 1500 ng/mL
  concentration at 240 min: 1400 ng/mL
Wistar, rat, plasma, iv, 50 mg/kg, i.v. 50 mg/kg, rats, read-out: t1/2e, elimination half-life (converted)
  half-life: ~0.9 h
[6]
  concentration at 20 min: 6 µg/mL
  concentration at 300 min: 1.2 µg/mL
  concentration at 360 min: 0.756 µg/mL
  concentration at 540 min: 0 µg/mL
  concentration at 720 min: 0 µg/mL
[7]
  concentration at 540 min: 0 µg/mL
  concentration at 720 min: 0 µg/mL
Wistar, rat, plasma, iv, i.v. 50 mg/kg, rats, read-out: CL, clearance
  clearance: 24 ± 5 mL/min
Wistar, rat, plasma, iv, i.v. 50 mg/kg, rats, read-out: Cp^0, initial plasma concentration
  C0: 11000 ± 1900 ng/mL
[8]
  k el: 0.000222 s⁻¹
  MRT: 1.7 ± 0.4 h
Wistar, rat, plasma, iv, i.v. 50 mg/kg, rats, read-out: Vd, volume of distribution
  Vd: 5.2 ± 0.9 L/kg
Wistar, rat, plasma, oral, 50 mg/kg, p.o. 50 mg/kg vs i.v. 50 mg/kg, rats, read-out: absolute oral bioavailability
  bioavailability: ~77%
[9]
  concentration at 5 min: 2200 ng/mL
  concentration at 10 min: 2200 ng/mL
  concentration at 30 min: 2500 ng/mL
  concentration at 45 min: 2100 ng/mL
  concentration at 60 min: 2100 ng/mL
  concentration at 90 min: 1800 ng/mL
  concentration at 120 min: 1500 ng/mL
  concentration at 180 min: 1000 ng/mL
  concentration at 240 min: 665 ng/mL
Wistar, rat, plasma, po, 50 mg/kg, p.o. 50 mg/kg, rats
  absorption half-life: 1.4 ± 0.3 h
Wistar, rat, plasma, po, 50 mg/kg, p.o. 50 mg/kg, rats, read-out: t1/2e, elimination half-life (converted)
  half-life: > 2.5 h
[10]
  concentration at 20 min: 2.2 µg/mL
  concentration at 600 min: 0 µg/mL
  concentration at 720 min: 0 µg/mL
[11]
  concentration at 20 min: 2.6 µg/mL
  concentration at 300 min: 0.5 µg/mL
  concentration at 360 min: 0.34 µg/mL
  concentration at 540 min: 0.136 µg/mL
  concentration at 600 min: 0 µg/mL
  concentration at 720 min: 0 µg/mL
[12]
  Cmax: 2800 ± 100 ng/mL
  k el: 0.000111 s⁻¹
  MRT: 1.7 ± 0.2 h
  Tmax: 0.55 h
Wistar, rat, plasma, two-compartment model, Kinetica 5.0, read-out: elimination half-life α (t1/2α)
  half-life: 0.267 h
Wistar, rat, plasma, two-compartment model, Kinetica 5.0, read-out: elimination half-life β (t1/2β) (converted)
  half-life: 3 h
i.p. 75 mg/kg, rats
  AUCtot, area under the plasma concentration-time curve from time zero to infinity: 2780 ± 69 µg·min/mL
  Ka, absorption rate constant: 1.4 ± 0.2 h⁻¹
i.v. 50 mg/kg, rats
  AUCtot, area under the plasma concentration-time curve from time zero to infinity: 806 ± 72 µg·min/mL
p.o. 50 mg/kg, rats
  AUCtot, area under the plasma concentration-time curve from time zero to infinity: 618 ± 63 µg·min/mL
  Ka, absorption rate constant: 0.9 ± 0.1 h⁻¹
p.o. 50 mg/kg, rats, 50 mg/kg
  t1/2e, elimination half-life: 2.5 ± 0.6 h
[13]
  K12: 0.018 min⁻¹
  K21: 0.019 min⁻¹
  α: 0.042 min⁻¹
